# Where a SMILES comes first, the peptide text is derived from it. [ ]: non-standard residue; d: D form. Aib = CC(C)(N)C(=O)O
# How the values were obtained:
# [1] = Chemical stability in phosphate buffer (UPLC purity); assay type: physicochemical
# Protocol: The compound purity was calculated by the percentage area of the main peak in the chromatograms relative to the total area of all integrated peaks, normalized by the purity of the sample on day 0 for the purity.
# [2] = Pharmacokinetics in rats after subcutaneous injection; assay type: in vivo, SD rats; settings: plasma
# Protocol: (1) Animals were grouped according to Table 12, and were given free access to water and food before administration.
# • Sampling time: 0 min pre-dose, and 2 min, 4 min, 7 min, 10 min, 20 min, 40 min, 1 h and 2 h post-dose. Blood was collected from rats by jugular catheterization.
# • 1) 0.2 mL of whole blood was collected at each time point into a centrifuge tube containing EDTA-K2; • 2) The blood samples were centrifuged at 4000 g at 4° C. for 5 min, and separated to give the plasma; • 3) The plasma samples were cryopreserved at −80° C.
# The mixture was vortexed for 5 min and centrifuged at a low temperature for 10 min. 100 μL of the supernatant was taken and added to 100 μL of 0.1% formic acid aqueous solution. The mixture was mixed well, and loaded on the instrument for analysis; • Liquid chromatography and mass spectrometry analysis: LC-30A liquid chromatography system (Shimadzu, Japan) and API 5500 liquid chromatography-triple quadrupole mass spectrometer (Analyst Software data processing system, AB Sciex, USA) were used. The chromatographic column was nanomicro Unisil C18aq (4.6 mm×150 mm, 5 μm) chromatographic column; the column temperature was 40° C.; the mobile phase A was 0.1% formic acid aqueous solution, and the mobile phase B was 0.1% formic acid in acetonitrile; the flow rate was 0.5 mL/min; the injection volume was 20 μL; the gradient is shown in Table 13 below. The mass spectrum was obtained using an electrospray ionization (ESI) source, a positive ion analysis mode and a multi reaction monitoring (MRM) scanning mode.
# The plasma concentration of the test compounds was measured by HPLC-MS/MS. The plasma concentration-time curve was plotted, and the pharmacokinetic parameters were calculated by PKSolver.
# [3] = 4° C., phosphate buffer pH 7.4, 1 mg/mL
# [4] = 25° C., phosphate buffer pH 7.4, 1 mg/mL
# [5] = male SD rats, single SC injection, Dasiglucagon 5 mg/kg, 40 5.06 mg/kg
structure (smiles),measurement,setting,value
CC(C)C[C@H](NC(=O)[C@H](Cc1ccc(O)cc1)NC(=O)[C@H](CCCCN)NC(=O)[C@H](CO)NC(=O)[C@H](Cc1ccc(O)cc1)NC(=O)[C@H](CC(=O)O)NC(=O)[C@H](CO)NC(=O)[C@@H](NC(=O)[C@H](Cc1ccccc1)NC(=O)[C@@H](NC(=O)CNC(=O)[C@H](CCC(N)=O)NC(=O)[C@H](CO)NC(=O)[C@@H](N)Cc1c[nH]cn1)[C@@H](C)O)[C@@H](C)O)C(=O)N[C@@H](CC(=O)O)C(=O)N[C@@H](CC(C)C)C(=O)NC(C)(C)C(=O)N[C@@H](CCCNC(=N)N)C(=O)N[C@@H](C)C(=O)N[C@@H](CCC(N)=O)C(=O)N[C@@H](CCC(=O)O)C(=O)N[C@@H](Cc1ccccc1)C(=O)N[C@H](C(=O)N[C@@H](CCC(N)=O)C(=O)N[C@@H](Cc1c[nH]c2ccccc12)C(=O)N[C@@H](CC(C)C)C(=O)N[C@@H](CCC(=O)O)C(=O)N[C@@H](CO)C(=O)N[C@H](C(=O)O)[C@@H](C)O)C(C)C [Compound 40] (H-HSQGTFTSDYSKYLDL[Aib]RAQEFVQWLEST-OH),Chemical stability in phosphate buffers (in words),[1],better chemical stability in phosphate buffers than that of Dasiglucagon
same,Purity Day 7,[1]; [3],99.40%
same,Purity Day 14,[1]; [3],99.87%
same,Purity Day 21,[1]; [3],100.27%
same,Purity Day 28,[1]; [3],100.59%
same,Purity Day 7,[1]; [4],99.70%
same,Purity Day 14,[1]; [4],99.54%
same,Purity Day 21,[1]; [4],97.63%
same,Purity Day 28,[1]; [4],97.90%
same,Purity Day 0,"[1]; phosphate buffer pH 7.4, 1 mg/mL, day 0 (normalization)",100.00%
same,AUClast/D,[2]; [5],176 h·ng/mL per mg/kg
same,T1/2,[2]; [5],24.8 min
same,Tmax,"[2]; male, SD, rat, sc",7.02 min
same,half-life,"[2]; male, SD, rat, sc, male SD rats, single SC injection, Dasiglucagon 5 mg/kg, 40 5.06 mg/kg",24.6 min
same,bioavailability,"[2]; male, SD, rat, sc, read-out: Bioavailability (F %)",88.2%

# Reference: patent US20240279298A1 (BEIJING TUO JIE BIOPHARMACEUTICAL CO. LTD., priority 2021, published 2024)
